# Publication PMC9950431, “A bivalent remipede toxin promotes calcium release via ryanodine receptor activation” (Nature Communications, 2023)
# Tests used:
# RyR2 = test: Washout (reversibility/avidity) single channel experiments, RyR2; assay type: biochemical, sheep (cardiac SR); conditions: 10 nM and 1 μM
# Method: Cardiac SR was prepared from mature female crossbred sheep hearts, and skeletal SR vesicles were isolated from the back and leg muscles of mature female New Zealand white rabbits[29],[54] with approval from the ANU Animal Experiment Ethics Committee Protocol Number A2015/35. […] Solutions for vesicle incorporation contained (mM): cis 230 caesium methanesulfonate (CsMS); 20 CsCl; 1 CaCl2 and 10 […] (TES) pH 7.4 and trans 30 CsMS; 20 CsCl; 1 CaCl2 10 TES; pH 7.4. SR vesicles routinely incorporated with the cytoplasmic surface of the SR and RyR facing the cis chamber. Following incorporation, 200 mM CsMS was added to the trans solution and the cis solution exchanged with recording solution containing (mM): 230 CsMS; 20 CsCl; 0.001 CaCl2;10 TES and pH 7.4, with [Ca^2+] set by a [BAPTA] determined using a Ca^2+ electrode. […] Electrophysiology experiments were analysed using Channel 2 (P.W. Gage, M. Smith, Australian National University) and Channel 3 (N.W. Laver, University of Newcastle, Australia) software, available from the authors upon request. […] Following most incorporation events, a single channel only was active in the bilayer and channel open probability (Po), mean open time (To), mean closed time (Tc) and open event frequency (Fo) were measured. […] In all experiments control channel activity was recorded for 3 to 5 min before exposure to the test compound. […]
# α7 nAChR = test: FLIPR Ca2+ assay, inhibition of endogenous α7 nAChR; assay type: cell-based, human; conditions: for Ca2+ response relative to control response: 3 µM Xt3a pre-treatment, choline 30 μM/PNU-120596 10 μM, over 300 s
# Method: (§1) SH-SY5Y human neuroblastoma cells (European Collection of Authenticated Cell Culture, Sigma Aldrich, 94030304-1VL) were cultured in RPMI media (ThermoFisher Scientific, Scoresby, Australia) supplemented with 15% foetal bovine serum and L-glutamine (1 mM) and passaged at approximately 80% confluency with TrypLE Express (Thermo Fisher, Australia). For fluorescence imaging, cells were plated on CellBIND (Corning) 384-well black-walled imaging plates at a density of 20,000–30,000 cells/well in complete media and cultured for 48 h at 37 °C/5% CO2.
# (§2) Briefly, SH-SY5Y cells were loaded with Calcium 4 no-wash dye (Molecular Devices) diluted in physiological salt solution (composition in mM: NaCl 140, D-glucose 11.5, KCl 5.9, MgCl2 1.4, NaH2PO4 1.2, NaHCO3 5, CaCl2 1.8, HEPES 10) for 30 min at 37 °C. A two-addition FLIPR^Tetra (Molecular Devices) protocol using the following settings was used to measure fluorescence responses: excitation 470–495 nm; emission 515–575 nm; excitation intensity 80%; excitation duration 0.8 s; gain 140; read interval 1/s; read number 300/addition. Responses mediated via endogenously expressed ion channels were elicited by addition of: choline (30 μM)/PNU-120596 (10 μM) for α7 nAChR-mediated responses; nicotine (30 μM) for α3β2/α3β4 nAChR-mediated responses; KCl (90 mM)/CaCl2 (5 mM) for CaV1.3-mediated responses; KCl (90 mM)/CaCl2 (5 mM) + nifedipine (10 μM) for CaV2.2-mediated responses; vertridine (70 μM) for NaV1.2-mediated responses; and veratridine (4 μM)/OD1 (300 nM) for NaV1.7-mediated responses. Raw fluorescence readings were converted to response over baseline using the analysis tool Screenworks 3.1.1.4 (Molecular Devices) and were expressed relative to the maximum increase in fluorescence of control responses and plotted using GraphPad Prism 9.3.1.
# (§3) In the cell-based FLIPR assays statistical analysis was performed using GraphPad Prism 9.3.1. Statistical significance was defined as p < 0.05, and determined by one-sample t-test assessing difference to the control value of 100%. In α7 nAChR, α3-containing nAChR, CaV1.3, CaV2.2, NaV1.2 and NaV1.7 channels (Supplementary Fig. 5B), with distribution (t) and degrees of freedom (df) being: t = 0.9683, df = 2 (α7); t = 1.338, df = 2 (α3); t = 1.775, df = 2 (NaV1.2); t = 1.478
# [1] = test system: α3β2/α3β4 nAChR (α3-containing nAChR); test: FLIPR Ca2+ assay, inhibition of endogenous α3-containing nAChR; assay type: cell-based, human; conditions: for Ca2+ response relative to control response: 3 µM Xt3a pre-treatment, nicotine 30 μM, over 300 s
# Method: as §1, §2, §3
substance,measurement,setting,value
φ-Xibalbin3-Xt3a,channel activity during washout,RyR2,activity did appear to increase somewhat during washout
same,Ca2+ response relative to control response,α7 nAChR; replicate 1,99.1155%
same,Ca2+ response relative to control response,α7 nAChR; replicate 2,100.788%
same,Ca2+ response relative to control response,α7 nAChR; replicate 3,96.222%
same,inhibition of Ca2+ responses,α7 nAChR; Xt3a 3 µM,did not inhibit Ca^2+ responses
same,Ca2+ response relative to control response,[1]; replicate 1,102.763%
same,Ca2+ response relative to control response,[1]; replicate 2,100.13%
same,Ca2+ response relative to control response,[1]; replicate 3,100.441%
same,inhibition of Ca2+ responses,[1]; Xt3a 3 µM,did not inhibit Ca^2+ responses
